34 molecules from US10519177B2, “Heterocyclic compounds and uses thereof” (Plexxikon Inc., priority 2013, dated 2019) can be followed below.

The assay deals with bromodomain. Description: at least one of the bromodomain cell assays of Example 57. It counts as cell-based. To be noted: at least one of the bromodomain cell assays described in Example 57; read-out: IC50 in at least one of the bromodomain cell assays.

For orientation: IC50 means the point on the concentration scale where inhibition reaches its midpoint.

Each structure is given as a SMILES string.

`COC(=O)c1ccc(-c2cn([C@@H](c3ccccc3)c3ccccn3)c3cc(-c4c(C)noc4C)cnc23)cc1` [P-0715, methyl 4-[6-(3,5-dimethylisoxazol-4-yl)-1-[(S)-phenyl(2-pyridyl)methyl]pyrrolo[3,2-b]pyridin-3-yl]benzoate]: the IC50 was less than 10 µM.

Turning to `CCOC(=O)c1ccc(-c2cn([C@@H](c3ccccc3)c3ccccn3)c3cc(-c4c(C)noc4C)cnc23)cc1` [P-0716, ethyl 4-[6-(3,5-dimethylisoxazol-4-yl)-1-[(S)-phenyl(2-pyridyl)methyl]pyrrolo[3,2-b]pyridin-3-yl]benzoate], the IC50 was less than 10 µM.

Turning to `Cc1noc(C)c1-c1cnc2c(-c3ccc(C(=O)OC(C)C)cc3)cn([C@@H](c3ccccc3)c3ccccn3)c2c1` [P-0717, isopropyl 4-[6-(3,5-dimethylisoxazol-4-yl)-1-[(S)-phenyl(2-pyridyl)methyl]pyrrolo[3,2-b]pyridin-3-yl]benzoate], the 50% inhibitory concentration (IC50) was less than 10 µM.

As to `Cc1noc(C)c1-c1cnc2c(-c3ccc(B(O)O)cc3)cn([C@@H](c3ccccc3)c3ccccn3)c2c1` [P-0718, [4-[6-(3,5-dimethylisoxazol-4-yl)-1-[(S)-phenyl(2-pyridyl)methyl]pyrrolo[3,2-b]pyridin-3-yl]phenyl]boronic acid], the IC50 was less than 10 µM.

As for `Cc1noc(C)c1-c1cnc2c(-c3ccc([N+](=O)[O-])nc3)cn([C@@H](c3ccccc3)c3ccccn3)c2c1` [P-0719, 3,5-dimethyl-4-[3-(6-nitro-3-pyridyl)-1-[(S)-phenyl(2-pyridyl)methyl]pyrrolo[3,2-b]pyridin-6-yl]isoxazole], the IC50 is less than 10 µM.

On to `Cc1noc(C)c1-c1cnc2c(-c3ccc(C#N)nc3)cn([C@@H](c3ccccc3)c3ccccn3)c2c1` [P-0720, 5-[6-(3,5-dimethylisoxazol-4-yl)-1-[(S)-phenyl(2-pyridyl)methyl]pyrrolo[3,2-b]pyridin-3-yl]pyridine-2-carbonitrile], for which the half-inhibitory concentration (IC50) is less than 10 µM.

Take `Cc1noc(C)c1-c1cnc2c(-c3cnn(C)c3)cn([C@@H](c3ccccc3)c3ccccn3)c2c1` [P-0721, 3,5-dimethyl-4-[3-(1-methylpyrazol-4-yl)-1-[(S)-phenyl(2-pyridyl)methyl]pyrrolo[3,2-b]pyridin-6-yl]isoxazole]: the IC50 was less than 10 µM.

Take `Cc1noc(C)c1-c1cnc2c(F)cn([C@H](c3ccccc3)c3ccccn3)c2c1` [P-0723, 4-[3-fluoro-1-[(R)-phenyl(2-pyridyl)methyl]pyrrolo[3,2-b]pyridin-6-yl]-3,5-dimethyl-isoxazole]: the concentration for half-maximal inhibition (IC50) is less than 10 µM.

Turning to `Cc1noc(C)c1-c1cnc2c(-c3ccc(CO)cc3)cn([C@H](c3ccccc3)c3ccccn3)c2c1` [P-0724, [4-[6-(3,5-dimethylisoxazol-4-yl)-1-[(R)-phenyl(2-pyridyl)methyl]pyrrolo[3,2-b]pyridin-3-yl]phenyl]methanol], the concentration for half-maximal inhibition (IC50) was less than 10 µM.

Regarding `Cc1ccc(-c2cn([C@H](c3ccccc3)c3ccccn3)c3cc(-c4c(C)noc4C)cnc23)cc1` [P-0725, 3,5-dimethyl-4-[1-[(R)-phenyl(2-pyridyl)methyl]-3-(p-tolyl)pyrrolo[3,2-b]pyridin-6-yl]isoxazole], the IC50 was less than 10 µM.

In the case of `COC(=O)c1ccc(-c2cn([C@H](c3ccccc3)c3ccccn3)c3cc(-c4c(C)noc4C)cnc23)cc1` [P-0726, methyl 4-[6-(3,5-dimethylisoxazol-4-yl)-1-[(R)-phenyl(2-pyridyl)methyl]pyrrolo[3,2-b]pyridin-3-yl]benzoate], the IC50 is less than 10 µM.

With `CCOC(=O)c1ccc(-c2cn([C@H](c3ccccc3)c3ccccn3)c3cc(-c4c(C)noc4C)cnc23)cc1` [P-0727, ethyl 4-[6-(3,5-dimethylisoxazol-4-yl)-1-[(R)-phenyl(2-pyridyl)methyl]pyrrolo[3,2-b]pyridin-3-yl]benzoate], the IC50 is less than 10 µM.

For `Cc1noc(C)c1-c1cnc2c(-c3ccc(C(=O)OC(C)C)cc3)cn([C@H](c3ccccc3)c3ccccn3)c2c1` [P-0728, isopropyl 4-[6-(3,5-dimethylisoxazol-4-yl)-1-[(R)-phenyl(2-pyridyl)methyl]pyrrolo[3,2-b]pyridin-3-yl]benzoate], the concentration for half-maximal inhibition (IC50) was less than 10 µM.

With `Cc1noc(C)c1-c1cnc2c(-c3ccc(B(O)O)cc3)cn([C@H](c3ccccc3)c3ccccn3)c2c1` [P-0729, [4-[6-(3,5-dimethylisoxazol-4-yl)-1-[(R)-phenyl(2-pyridyl)methyl]pyrrolo[3,2-b]pyridin-3-yl]phenyl]boronic acid], the half-maximal inhibitory concentration (IC50) was less than 10 µM.

As for `Cc1noc(C)c1-c1cnc2c(-c3ccc([N+](=O)[O-])nc3)cn([C@H](c3ccccc3)c3ccccn3)c2c1` [P-0730, 3,5-dimethyl-4-[3-(6-nitro-3-pyridyl)-1-[(R)-phenyl(2-pyridyl)methyl]pyrrolo[3,2-b]pyridin-6-yl]isoxazole], the IC50 was less than 10 µM.

For the molecule `Cc1noc(C)c1-c1cnc2c(-c3ccc(C#N)nc3)cn([C@H](c3ccccc3)c3ccccn3)c2c1` [P-0731, 5-[6-(3,5-dimethylisoxazol-4-yl)-1-[(R)-phenyl(2-pyridyl)methyl]pyrrolo[3,2-b]pyridin-3-yl]pyridine-2-carbonitrile], the half-inhibitory concentration (IC50) was less than 10 µM.

`Cc1noc(C)c1-c1cnc2c(-c3cnn(C)c3)cn([C@H](c3ccccc3)c3ccccn3)c2c1` [P-0732, 3,5-dimethyl-4-[3-(1-methylpyrazol-4-yl)-1-[(R)-phenyl(2-pyridyl)methyl]pyrrolo[3,2-b]pyridin-6-yl]isoxazole]: the 50% inhibitory concentration (IC50) is less than 10 µM.

Consider `Cc1noc(C)c1-c1cnc2[nH]cc(C(c3ccccn3)c3ccccn3)c2c1` [P-0733, 4-[3-[bis(2-pyridyl)methyl]-1H-pyrrolo[2,3-b]pyridin-5-yl]-3,5-dimethyl-isoxazole], for which the concentration for half-maximal inhibition (IC50) is less than 10 µM.

For `Cc1noc(C)c1-c1cnc2c(c1)c(C(c1ccccn1)c1ccccn1)cn2C(F)F` [P-0734, 4-[3-[bis(2-pyridyl)methyl]-1-(difluoromethyl)pyrrolo[2,3-b]pyridin-5-yl]-3,5-dimethyl-isoxazole], the concentration for half-maximal inhibition (IC50) was less than 10 µM.

Consider `Cc1noc(C)c1-c1cnc2c(c1)c(C(c1ccccn1)c1ccccn1)cn2-c1ccc(C(=O)O)cc1` [P-0735, 4-[3-[bis(2-pyridyl)methyl]-5-(3,5-dimethylisoxazol-4-yl)pyrrolo[2,3-b]pyridin-1-yl]benzoic acid], for which the half-maximal inhibitory concentration (IC50) is less than 10 µM.

Turning to `Cc1noc(C)c1-c1cnc2c(c1)c(C(c1ccccn1)c1ccccn1)cn2-c1ccc(CO)cc1` [P-0736, [4-[3-[bis(2-pyridyl)methyl]-5-(3,5-dimethylisoixazol-4-yl)pyrrolo[2,3-b]pyridin-1-yl]phenyl]methanol], the IC50 was less than 10 µM.

Regarding `Cc1noc(C)c1-c1cnc2c(c1)c(C(c1ccccn1)c1ccccn1)cn2-c1ccc(C(=O)O)cn1` [P-0737, 6-[3-[bis(2-pyridyl)methyl]-5-(3,5-dimethylisoxazol-4-yl)pyrrolo[2,3-b]pyridin-1-yl]pyridine-3-carboxylic acid], the IC50 is less than 10 µM.

Take `Cc1noc(C)c1-c1cnc2[nH]cc(C(c3ccccc3)c3ccccc3)c2c1` [P-0738, 4-(3-benzhydryl-1H-pyrrolo[2,3-b]pyridin-5-yl)-3,5-dimethyl-isoxazole]: the IC50 is less than 10 µM.

`Cc1noc(C)c1-c1cnc2c(c1)c(C(c1ccccc1)c1ccccc1)cn2C(F)F` [P-0739, 4-[3-benzhydryl-1-(difluoromethyl)pyrrolo[2,3-b]pyridin-5-yl]-3,5-dimethyl-isoxazole]: the concentration for half-maximal inhibition (IC50) was less than 10 µM.

With `Cc1noc(C)c1-c1cnc2c(c1)c(C(c1ccccc1)c1ccccc1)cn2-c1ccc(C(=O)O)cc1` [P-0740, 4-[3-benzhydryl-5-(3,5-dimethylisoxazol-4-yl)pyrrolo[2,3-b]pyridin-1-yl]benzoic acid], the IC50 is less than 10 µM.

Turning to `Cc1noc(C)c1-c1cnc2c(c1)c(C(c1ccccc1)c1ccccc1)cn2-c1ccc(CO)cc1` [P-0741, [4-[3-benzhydryl-5-(3,5-dimethylisoxazol-4-yl)pyrrolo[2,3-b]pyridin-1-yl]phenyl]methanol], the IC50 was less than 10 µM.

For the molecule `Cc1noc(C)c1-c1cnc2c(c1)c(C(c1ccccc1)c1ccccc1)cn2-c1ccc(C(=O)O)cn1` [P-0742, 6-[3-benzhydryl-5-(3,5-dimethylisoxazol-4-yl)pyrrolo[2,3-b]pyridin-1-yl]pyridine-3-carboxylic acid], the IC50 is less than 10 µM.

Turning to `Cc1noc(C)c1-c1ccc2c(-c3ccc(C(=O)O)cc3)cn(CC3CCC(F)(F)CC3)c2c1` [P-0745, 4-[1-[(4,4-difluorocyclohexyl)methyl]-6-(3,5-dimethylisoxazol-4-yl)indol-3-yl]benzoic acid], the IC50 was less than 10 µM.

Consider `COc1cc(-c2cn(CC3CCC(F)(F)CC3)c3cc(-c4c(C)noc4C)ccc23)ccc1C(=O)O` [P-0746, 4-[1-[(4,4-difluorocyclohexyl)methyl]-6-(3,5-dimethylisoxazol-4-yl)indol-3-yl]-2-methoxy-benzoic acid], for which the 50% inhibitory concentration (IC50) was less than 10 µM.

Turning to `Cc1noc(C)c1-c1ccc2c(-c3ccc(P(=O)(O)O)cc3)cn(CC3CCC(F)(F)CC3)c2c1` [P-0747, [4-[1-[(4,4-difluorocyclohexyl)methyl]-6-(3,5-dimethylisoxazol-4-yl)indol-3-yl]phenyl]phosphonic acid], the half-inhibitory concentration (IC50) was less than 10 µM.

On to `Cc1noc(C)c1-c1ccc2c(-c3ccc(C4(C(=O)O)CC4)cc3)cn(CC3CCC(F)(F)CC3)c2c1` [P-0748, 1-[4-[1-[(4,4-difluorocyclohexyl)methyl]-6-(3,5-dimethylisoxazol-4-yl)indol-3-yl]phenyl]cyclopropanecarboxylic acid], for which the concentration for half-maximal inhibition (IC50) was less than 10 µM.

On to `Cc1noc(C)c1-c1ccc2c(-c3ccc(B(O)O)cc3)cn(CC3CCC(F)(F)CC3)c2c1` [P-0749, [4-[1-[(4,4-difluorocyclohexyl)methyl]-6-(3,5-dimethylisoxazol-4-yl)indol-3-yl]phenyl]boronic acid], for which the half-maximal inhibitory concentration (IC50) was less than 10 µM.

Consider `Cc1noc(C)c1-c1ccc2c(-c3ccc([N+](=O)[O-])nc3)cn(CC3CCC(F)(F)CC3)c2c1` [P-0750, 4-[1-[(4,4-difluorocyclohexyl)methyl]-3-(6-nitro-3-pyridyl)indol-6-yl]-3,5-dimethyl-isoxazol], for which the half-inhibitory concentration (IC50) is less than 10 µM.

In the case of `Cc1noc(C)c1-c1ccc2c(-c3ccc(C(=O)O)cc3)cn([C@@H](c3ccccc3)c3ccccn3)c2c1` [P-0751, 4-[6-(3,5-dimethylisoxazol-4-yl)-1-[(S)-phenyl(2-pyridyl)methyl]indol-3-yl]benzoic acid], the half-maximal inhibitory concentration (IC50) is less than 10 µM.
